Assay results as given in the Kinase Knowledgebase extract (Sharma et al. 2016).

Target: CDK2 (human) (UniProt P24941)
Test: Enzyme Assay
Settings: for inhibition: concentration not given here

Compound | inhibition | Ki
CCOC(=O)C(=O)N1CCC(Nc2nc(N)c(C(=O)c3c(F)cccc3F)s2)CC1 | -13% | –
CC(C)=CC1C(C(=O)N2CCC(Nc3nc(N)c(C(=O)c4c(F)cccc4F)s3)CC2)C1(C)C (stereo not given) | 10% | –
Nc1nc(NC2CCN(C(=O)/C=C/c3ccccc3O)CC2)sc1C(=O)c1c(F)cccc1F | 74% | –
Nc1nc(NC2CCN(C(=O)COc3ccc([N+](=O)[O-])cc3)CC2)sc1C(=O)c1c(F)cccc1F | 60% | –
Cc1cccc(OCC(=O)N2CCC(Nc3nc(N)c(C(=O)c4c(F)cccc4F)s3)CC2)c1C | 40% | –
COC(=O)CCCC(=O)N1CCC(Nc2nc(N)c(C(=O)c3c(F)cccc3F)s2)CC1 | 45% | –
C/C=C/CC(=O)N1CCC(Nc2nc(N)c(C(=O)c3c(F)cccc3F)s2)CC1 | 62% | –
CCCCC(CC)COC(=O)N1CCC(Nc2nc(N)c(C(=O)c3c(F)cccc3F)s2)CC1 (stereo not given) | -42% | –
CC(SCc1ccccc1)C(=O)N1CCC(Nc2nc(N)c(C(=O)c3c(F)cccc3F)s2)CC1 (stereo not given) | 50% | –
CC(O)CC(=O)N1CCC(Nc2nc(N)c(C(=O)c3c(F)cccc3F)s2)CC1 (stereo not given) | 38% | –
COCCOCC(=O)N1CCC(Nc2nc(N)c(C(=O)c3c(F)cccc3F)s2)CC1 | 73% | –
Nc1nc(NC2CCN(C(=O)/C=C/c3ccccc3)CC2)sc1C(=O)c1c(F)cccc1F | 47% | –
CCCN(CCC)[C@@H](C)C(=O)N1CCC(Nc2nc(N)c(C(=O)c3c(F)cccc3F)s2)CC1 | 6% | –
COc1ccccc1C(O)C(=O)N1CCC(Nc2nc(N)c(C(=O)c3c(F)cccc3F)s2)CC1 (stereo not given) | 27% | –
COc1cccc(OCC(=O)N2CCC(Nc3nc(N)c(C(=O)c4c(F)cccc4F)s3)CC2)c1 | 61% | –
CC(=O)CCCCC(=O)N1CCC(Nc2nc(N)c(C(=O)c3c(F)cccc3F)s2)CC1 | 49% | –
Cc1ccccc1CC(=O)N1CCC(Nc2nc(N)c(C(=O)c3c(F)cccc3F)s2)CC1 | 56% | –
CCCC(CC)CC(=O)N1CCC(Nc2nc(N)c(C(=O)c3c(F)cccc3F)s2)CC1 (stereo not given) | 31% | –
Nc1nc(NC2CCN(C(=O)OCC3c4ccccc4-c4ccccc43)CC2)sc1C(=O)c1c(F)cccc1F | -12% | –
Nc1nc(NC2CCN(C(=O)c3ccccc3C(F)(F)F)CC2)sc1C(=O)c1c(F)cccc1F | -12% | –

Compound | inhibition | Ki
C=CCC(C)C(=O)N1CCC(Nc2nc(N)c(C(=O)c3c(F)cccc3F)s2)CC1 (stereo not given) | 21% | –
CCCCC(O)C(=O)N1CCC(Nc2nc(N)c(C(=O)c3c(F)cccc3F)s2)CC1 (stereo not given) | 16% | –
Nc1nc(NC2CCN(C(=O)C3CCC(=O)CC3)CC2)sc1C(=O)c1c(F)cccc1F | 48% | –
Cc1ccc(/C=C/C(=O)N2CCC(Nc3nc(N)c(C(=O)c4c(F)cccc4F)s3)CC2)cc1C | 52% | –
Nc1nc(NC2CCN(S(=O)(=O)c3c(F)cccc3F)CC2)sc1C(=O)c1c(F)cccc1F | -8% | –
Nc1nc(NC2CCN(C(=O)CC3CCCC3)CC2)sc1C(=O)c1c(F)cccc1F | -20% | –
Nc1nc(NC2CCN(C(=O)c3cnc4ccccc4n3)CC2)sc1C(=O)c1c(F)cccc1F | 61% | –
Nc1nc(NC2CCN(C(=O)CSc3ccccc3F)CC2)sc1C(=O)c1c(F)cccc1F | 75% | –
CN(C)c1ccc(NC(=O)N2CCC(Nc3nc(N)c(C(=O)c4c(F)cccc4F)s3)CC2)cc1 | 23% | –
Nc1nc(NC2CCN(C(=O)[C@@H]3CCC(=O)O3)CC2)sc1C(=O)c1c(F)cccc1F | 95% | –
Nc1nc(NC2CCN(C(=O)N3CCCC3)CC2)sc1C(=O)c1c(F)cccc1F | -10% | –
Nc1nc(NC2CCN(C(=O)CCCc3ccccc3)CC2)sc1C(=O)c1c(F)cccc1F | 38% | –
CC(C)CCCC(=O)N1CCC(Nc2nc(N)c(C(=O)c3c(F)cccc3F)s2)CC1 | 71% | –
Nc1nc(NC2CCN(C(=O)CCC(F)(F)F)CC2)sc1C(=O)c1c(F)cccc1F | 45% | –
CCSCC(=O)N1CCC(Nc2nc(N)c(C(=O)c3c(F)cccc3F)s2)CC1 | 63% | –
Nc1nc(NC2CCN(C(=O)C3CC3)CC2)sc1C(=O)c1c(F)cccc1F | -2% | –
COc1ccccc1/C=C/C(=O)N1CCC(Nc2nc(N)c(C(=O)c3c(F)cccc3F)s2)CC1 | 92% | –
C[C@@H](O)CC(=O)N1CCC(Nc2nc(N)c(C(=O)c3c(F)cccc3F)s2)CC1 | 72% | –
CCOc1ccccc1CC(=O)N1CCC(Nc2nc(N)c(C(=O)c3c(F)cccc3F)s2)CC1 | 71% | –

More lines, now with the values ahead:

inhibition | Ki | Compound
11% | – | Nc1nc(NC2CCN(C(=O)c3cccc(F)c3F)CC2)sc1C(=O)c1c(F)cccc1F
64% | – | Nc1nc(NC2CCN(C(=O)/C(F)=C/c3ccccc3)CC2)sc1C(=O)c1c(F)cccc1F
47% | – | Cc1cccc(Cl)c1C(=O)N1CCC(Nc2nc(N)c(C(=O)c3c(F)cccc3F)s2)CC1
49% | – | CCC/C=C/CC(=O)N1CCC(Nc2nc(N)c(C(=O)c3c(F)cccc3F)s2)CC1
59% | – | COc1cc(C)ccc1C(=O)N1CCC(Nc2nc(N)c(C(=O)c3c(F)cccc3F)s2)CC1
77% | – | CCOc1cccc(CC(=O)N2CCC(Nc3nc(N)c(C(=O)c4c(F)cccc4F)s3)CC2)c1
69% | – | Nc1nc(NC2CCN(C(=O)c3ccc(-n4cccc4)cc3)CC2)sc1C(=O)c1c(F)cccc1F
40% | – | Cn1ncc(C(=O)N2CCC(Nc3nc(N)c(C(=O)c4c(F)cccc4F)s3)CC2)c1[N+](=O)[O-]
36% | – | CCCCCC(=O)N1CCC(Nc2nc(N)c(C(=O)c3c(F)cccc3F)s2)CC1
61% | – | COc1ccc2oc(C(=O)N3CCC(Nc4nc(N)c(C(=O)c5c(F)cccc5F)s4)CC3)cc2c1
29% | – | CC(C)C(C(=O)N1CCC(Nc2nc(N)c(C(=O)c3c(F)cccc3F)s2)CC1)c1ccccc1 (stereo not given)
27% | – | Nc1nc(NC2CCN(C(=O)c3cnc4ccccc4c3)CC2)sc1C(=O)c1c(F)cccc1F
34% | – | CC(C)(C)C1CCC(C(=O)N2CCC(Nc3nc(N)c(C(=O)c4c(F)cccc4F)s3)CC2)CC1 (stereo not given)
10% | – | CN(C)[C@@H](Cc1ccccc1)C(=O)N1CCC(Nc2nc(N)c(C(=O)c3c(F)cccc3F)s2)CC1
30% | – | Nc1nc(NC2CCN(C(=O)c3ccc(F)c4ccccc34)CC2)sc1C(=O)c1c(F)cccc1F
12% | – | Nc1nc(NC2CCN(C(=O)CCCCCc3ccccc3)CC2)sc1C(=O)c1c(F)cccc1F
52% | – | Cc1ccc(OCC(=O)N2CCC(Nc3nc(N)c(C(=O)c4c(F)cccc4F)s3)CC2)cc1C
75% | – | Nc1nc(NC2CCN(C(=O)C(O)c3ccccc3)CC2)sc1C(=O)c1c(F)cccc1F (stereo not given)
49% | – | CN(C)C(=O)CCC(=O)N1CCC(Nc2nc(N)c(C(=O)c3c(F)cccc3F)s2)CC1
35% | – | CC(CC(=O)N1CCC(Nc2nc(N)c(C(=O)c3c(F)cccc3F)s2)CC1)CC(C)(C)C (stereo not given)
39% | – | Nc1nc(NC2CCN(C(=O)CCO)CC2)sc1C(=O)c1c(F)cccc1F
57% | – | CC(C)CC(O)C(=O)N1CCC(Nc2nc(N)c(C(=O)c3c(F)cccc3F)s2)CC1 (stereo not given)
55% | – | Nc1nc(NC2CCN(S(=O)(=O)c3ccc(CNC(=O)c4ccc(O)cc4)s3)CC2)sc1C(=O)c1c(F)cccc1F
– | 1.8 nM | Nc1nc(NC2CCN(S(=O)(=O)c3ccc(CCN4CCC(c5ccccc5)C4)nc3)CC2)sc1C(=O)c1c(F)cccc1F (stereo not given)
-11% | – | COc1ccc(C(=O)N2CCC(Nc3nc(N)c(C(=O)c4c(F)cccc4F)s3)CC2)c(OC)c1
24% | – | Nc1nc(NC2CCN(C(=O)/C=C/c3cccc(Cl)c3)CC2)sc1C(=O)c1c(F)cccc1F
